Several values for one entry are separate records, joined by “and”; a condition that tells them apart may be missing. Equal entries are not always repeated.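 1) Cells in 96-well plates. 2) Compound, 48 h, 5 concentrations. 3) Linear interpolation between surrounding doses. 4) Unreached endpoint = highest concentration. GI50 marks 50% less growth. TGI marks complete inhibition of growth.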
Columns and labels:
Assay in all cases: NCI tumour cell line growth inhibition, 48 h
[1] = tested on: DLD-1 colon
[2] = tested on: DMS 114 small cell lung
[3] = tested on: HOP-18 NSCLC
[4] = tested on: LXFL 529 NSCLC
[5] = tested on: RXF-631 renal
[6] = tested on: XF 498 CNS

| SMILES | TGI [1] | TGI [2] | TGI [3] [µM] | TGI [4] [µM] | TGI [5] [µM] | TGI [6] [µM] | GI50 [1] [µM] | GI50 [2] [µM] | GI50 [4] [µM] | GI50 [5] [µM] |
| --- | --- | --- | --- | --- | --- | --- | --- | --- | --- | --- |
| CC[C@]1(O)C(=O)OCc2c1cc1n(c2=O)Cc2cc3c(N)cccc3nc2-1 | > 100 µM | > 100 µM | > 100 | > 100 | > 100 | > 100 |  |  |  |  |
| CN1CC[C@]2(C)c3ccc(O)cc3CC3CCCC1C32C (stereo partly specified) | > 100 µM | > 100 µM | > 100 | > 100 | > 100 | > 100 |  |  |  |  |
| N#CCCN(CCC#N)c1ccc(C(Sc2ccccc2)C(NC(=O)c2cc([N+](=O)[O-])ccc2Cl)C(=O)Sc2ccccc2)cc1 (stereo unspecified) | 9.43 µM and 4.58 µM | 7.78 µM and 4.1 µM | 47.3 | 11.9 | 4.01 | 21.3 | 1.8 | 1.34 | 1.63 | 1.53 |
| C[C@]12CCCC(=O)C1(O)C[C@H](C(=O)O)CC2 (stereo partly specified) | > 100 µM | > 100 µM | > 100 | > 100 | > 100 | > 100 |  |  |  |  |
| C/C(CCc1ccccc1)=N\NC(N)=S | > 100 µM | > 100 µM | > 100 | > 100 | > 100 | > 100 |  |  |  |  |
| Cc1ccccc1C1=C(C(=O)Nc2ccc(Cl)c(Cl)c2)NC(=S)NC1N (stereo unspecified) | > 100 µM | > 100 µM | > 100 | > 100 | > 100 | > 100 |  |  |  |  |
| CC(=O)NC(CCCCNC(=O)NCCCl)C(=O)NCc1ccccc1 (stereo unspecified) | > 100 µM | > 100 µM | > 100 | > 100 | > 100 | > 100 |  |  |  |  |

From PubChem BioAssay (NCI)
